Results from ChEMBL document CHEMBL1152560, “Substituted 2-arylbenzothiazoles as kinase inhibitors: hit-to-lead optimization” (Bioorg Med Chem, 2009).

Assays:
[1] = molecular target: Serine/threonine-protein kinase PAK 5 (Homo sapiens) (UniProt Q9P286); assay: Residual activity of PAK7 at 10 uM by microplate scintillation counting
[2] = molecular target: Protein kinase C alpha type (Homo sapiens) (UniProt P17252); assay: Residual activity of PKCalpha at 10 uM by microplate scintillation counting
[3] = molecular target: Calcium/calmodulin-dependent protein kinase type 1D (Homo sapiens) (UniProt Q8IU85); assay: Residual activity of CAMK1D at 10 uM by microplate scintillation counting
[4] = molecular target: Serine/threonine-protein kinase B-raf (Homo sapiens) (UniProt P15056); assay: Residual activity of Wild type B-RAF at 10 uM by microplate scintillation counting
Chain of Serine/threonine-protein kinase B-raf (Homo sapiens) (P15056 whole entry): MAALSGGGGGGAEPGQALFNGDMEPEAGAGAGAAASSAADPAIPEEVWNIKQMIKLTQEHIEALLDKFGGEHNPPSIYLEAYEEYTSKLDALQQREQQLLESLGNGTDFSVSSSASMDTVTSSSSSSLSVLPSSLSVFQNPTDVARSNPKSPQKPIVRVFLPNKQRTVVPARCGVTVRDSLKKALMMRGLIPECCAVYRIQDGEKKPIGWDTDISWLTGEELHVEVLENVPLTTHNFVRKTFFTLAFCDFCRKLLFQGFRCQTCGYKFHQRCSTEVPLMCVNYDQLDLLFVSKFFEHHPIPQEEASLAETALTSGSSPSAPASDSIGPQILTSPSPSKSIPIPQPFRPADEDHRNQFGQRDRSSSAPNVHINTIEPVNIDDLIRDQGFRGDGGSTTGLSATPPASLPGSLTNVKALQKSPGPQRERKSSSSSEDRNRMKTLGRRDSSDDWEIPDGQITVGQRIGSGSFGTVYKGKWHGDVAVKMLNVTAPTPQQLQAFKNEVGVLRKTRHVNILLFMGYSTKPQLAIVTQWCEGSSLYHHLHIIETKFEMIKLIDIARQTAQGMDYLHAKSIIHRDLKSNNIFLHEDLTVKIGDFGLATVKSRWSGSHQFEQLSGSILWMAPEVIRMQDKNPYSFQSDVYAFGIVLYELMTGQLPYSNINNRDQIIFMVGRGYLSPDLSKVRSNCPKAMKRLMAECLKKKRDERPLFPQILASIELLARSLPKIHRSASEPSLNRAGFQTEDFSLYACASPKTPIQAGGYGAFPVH

[5] = molecular target: T1, Ephrin type-B receptor 2 (Homo sapiens) (UniProt P29323); assay: Residual activity of EPHB2 at 1 uM by microplate scintillation counting
T1 sequence (whole entry): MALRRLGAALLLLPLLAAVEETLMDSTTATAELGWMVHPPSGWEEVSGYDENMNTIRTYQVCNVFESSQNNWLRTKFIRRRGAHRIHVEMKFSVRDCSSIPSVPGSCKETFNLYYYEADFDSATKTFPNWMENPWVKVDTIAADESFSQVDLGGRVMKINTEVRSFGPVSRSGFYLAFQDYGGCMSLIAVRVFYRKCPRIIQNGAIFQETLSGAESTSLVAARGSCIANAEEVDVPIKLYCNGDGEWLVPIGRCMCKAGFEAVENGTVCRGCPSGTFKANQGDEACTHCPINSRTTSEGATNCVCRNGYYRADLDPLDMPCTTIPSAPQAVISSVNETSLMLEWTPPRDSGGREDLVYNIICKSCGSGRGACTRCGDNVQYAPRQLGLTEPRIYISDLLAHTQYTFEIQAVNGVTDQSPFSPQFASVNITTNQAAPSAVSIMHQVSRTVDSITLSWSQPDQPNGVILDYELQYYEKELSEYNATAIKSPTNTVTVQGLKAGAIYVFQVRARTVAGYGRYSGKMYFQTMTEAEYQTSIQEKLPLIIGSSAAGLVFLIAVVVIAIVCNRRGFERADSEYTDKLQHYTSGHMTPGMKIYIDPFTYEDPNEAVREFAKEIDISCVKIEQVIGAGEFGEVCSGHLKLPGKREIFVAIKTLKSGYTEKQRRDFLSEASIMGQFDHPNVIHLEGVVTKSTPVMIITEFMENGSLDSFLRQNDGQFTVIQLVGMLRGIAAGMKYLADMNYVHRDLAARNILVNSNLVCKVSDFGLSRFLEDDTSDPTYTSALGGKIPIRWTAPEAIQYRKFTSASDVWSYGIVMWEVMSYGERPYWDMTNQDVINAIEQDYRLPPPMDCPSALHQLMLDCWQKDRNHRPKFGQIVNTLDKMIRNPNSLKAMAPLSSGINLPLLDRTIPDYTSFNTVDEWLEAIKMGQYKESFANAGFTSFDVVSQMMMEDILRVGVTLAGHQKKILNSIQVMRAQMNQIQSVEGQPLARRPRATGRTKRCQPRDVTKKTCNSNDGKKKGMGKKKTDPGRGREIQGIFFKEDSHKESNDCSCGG

[6] = molecular target: Calcium/calmodulin-dependent protein kinase type II subunit beta (Homo sapiens) (UniProt Q13554); assay: Residual activity of CAMK2B at 10 uM by microplate scintillation counting
Chain of Calcium/calmodulin-dependent protein kinase type II subunit beta (Homo sapiens) (Q13554 whole entry): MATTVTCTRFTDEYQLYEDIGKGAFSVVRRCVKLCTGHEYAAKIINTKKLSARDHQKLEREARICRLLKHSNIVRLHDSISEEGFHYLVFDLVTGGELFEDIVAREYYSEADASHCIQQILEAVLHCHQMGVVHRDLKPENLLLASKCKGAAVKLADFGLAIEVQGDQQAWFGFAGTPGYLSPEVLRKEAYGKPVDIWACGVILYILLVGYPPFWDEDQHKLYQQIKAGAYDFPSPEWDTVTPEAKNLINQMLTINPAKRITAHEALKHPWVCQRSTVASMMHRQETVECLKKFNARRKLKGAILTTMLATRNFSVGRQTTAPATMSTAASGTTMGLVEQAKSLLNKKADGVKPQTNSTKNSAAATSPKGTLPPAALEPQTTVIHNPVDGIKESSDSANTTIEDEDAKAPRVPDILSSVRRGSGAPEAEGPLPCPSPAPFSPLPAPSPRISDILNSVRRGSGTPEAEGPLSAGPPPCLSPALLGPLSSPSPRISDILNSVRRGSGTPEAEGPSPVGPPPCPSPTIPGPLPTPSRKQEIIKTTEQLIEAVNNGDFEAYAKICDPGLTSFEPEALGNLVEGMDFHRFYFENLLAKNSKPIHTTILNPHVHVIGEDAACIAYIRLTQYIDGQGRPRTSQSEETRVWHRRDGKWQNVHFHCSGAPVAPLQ

[7] = molecular target: Protein kinase C gamma type (Homo sapiens) (UniProt P05129); assay: Residual activity of PKCgamma at 10 uM by microplate scintillation counting
[8] = molecular target: Mitogen-activated protein kinase kinase kinase 8 (Homo sapiens) (UniProt P41279); assay: Residual activity of COT at 1 uM by microplate scintillation counting
Chain of Mitogen-activated protein kinase kinase kinase 8 (Homo sapiens) (P41279 whole entry): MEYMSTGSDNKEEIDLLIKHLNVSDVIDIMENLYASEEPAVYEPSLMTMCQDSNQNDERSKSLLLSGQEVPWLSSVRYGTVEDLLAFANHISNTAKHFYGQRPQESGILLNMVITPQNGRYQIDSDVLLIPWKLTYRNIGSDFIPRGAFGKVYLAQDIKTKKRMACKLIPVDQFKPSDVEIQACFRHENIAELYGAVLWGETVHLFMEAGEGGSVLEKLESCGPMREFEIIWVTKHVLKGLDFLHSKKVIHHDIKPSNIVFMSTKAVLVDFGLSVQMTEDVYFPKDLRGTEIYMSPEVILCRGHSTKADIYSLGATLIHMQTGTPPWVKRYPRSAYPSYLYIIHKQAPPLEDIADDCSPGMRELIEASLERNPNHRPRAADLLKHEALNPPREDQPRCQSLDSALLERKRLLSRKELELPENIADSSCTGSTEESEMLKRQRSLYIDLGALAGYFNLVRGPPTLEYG

[9] = molecular target: T2, cGMP-dependent protein kinase 1 (Homo sapiens) (UniProt Q13976); assay: Residual activity of PRKG1 at 0.1 uM by microplate scintillation counting
T2 sequence (whole entry): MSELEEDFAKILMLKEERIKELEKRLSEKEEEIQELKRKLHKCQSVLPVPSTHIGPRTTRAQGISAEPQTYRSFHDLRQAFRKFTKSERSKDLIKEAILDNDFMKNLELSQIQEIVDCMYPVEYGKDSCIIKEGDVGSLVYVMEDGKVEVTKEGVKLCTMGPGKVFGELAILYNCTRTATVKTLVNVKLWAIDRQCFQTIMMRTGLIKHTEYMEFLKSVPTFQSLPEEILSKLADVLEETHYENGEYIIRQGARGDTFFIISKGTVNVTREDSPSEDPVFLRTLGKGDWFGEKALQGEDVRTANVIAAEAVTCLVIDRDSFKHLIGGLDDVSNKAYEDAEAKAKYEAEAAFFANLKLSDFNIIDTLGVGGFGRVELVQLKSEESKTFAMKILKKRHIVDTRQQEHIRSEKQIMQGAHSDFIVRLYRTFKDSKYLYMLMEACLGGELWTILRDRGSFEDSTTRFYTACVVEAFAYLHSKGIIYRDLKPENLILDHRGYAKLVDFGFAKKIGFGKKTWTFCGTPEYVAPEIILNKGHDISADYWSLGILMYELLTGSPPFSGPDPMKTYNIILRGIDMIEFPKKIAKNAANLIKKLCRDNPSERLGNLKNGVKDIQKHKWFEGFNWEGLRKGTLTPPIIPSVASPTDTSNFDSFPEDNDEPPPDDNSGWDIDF

[10] = molecular target: Protein kinase C delta type (Homo sapiens) (UniProt Q05655); assay: Residual activity of PKCdelta at 10 uM by microplate scintillation counting
Chain of Protein kinase C delta type (Homo sapiens) (Q05655 whole entry, looked up): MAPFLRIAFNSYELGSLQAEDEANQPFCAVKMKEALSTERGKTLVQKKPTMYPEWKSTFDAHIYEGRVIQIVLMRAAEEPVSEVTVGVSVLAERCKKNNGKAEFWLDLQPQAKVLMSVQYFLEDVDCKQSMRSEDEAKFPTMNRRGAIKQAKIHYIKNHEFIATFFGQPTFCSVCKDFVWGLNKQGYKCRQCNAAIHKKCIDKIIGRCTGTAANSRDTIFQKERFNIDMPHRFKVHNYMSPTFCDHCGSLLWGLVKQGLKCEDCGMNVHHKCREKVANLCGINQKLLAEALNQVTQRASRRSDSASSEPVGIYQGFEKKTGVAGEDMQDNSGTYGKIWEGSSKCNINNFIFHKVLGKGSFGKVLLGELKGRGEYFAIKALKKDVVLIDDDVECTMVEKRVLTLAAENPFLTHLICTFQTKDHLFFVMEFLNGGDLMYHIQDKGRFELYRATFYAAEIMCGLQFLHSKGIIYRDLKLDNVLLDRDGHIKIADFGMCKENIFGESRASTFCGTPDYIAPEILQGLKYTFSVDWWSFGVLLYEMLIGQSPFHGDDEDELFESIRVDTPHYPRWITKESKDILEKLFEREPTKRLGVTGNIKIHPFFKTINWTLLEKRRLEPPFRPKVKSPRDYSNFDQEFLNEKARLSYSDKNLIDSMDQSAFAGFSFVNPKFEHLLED

Aurora kinase B = Aurora kinase B (Homo sapiens, UniProt Q96GD4); assay: Residual activity of Aurora-B at 1 uM by microplate scintillation counting
Chain of Aurora kinase B (Q96GD4 whole entry): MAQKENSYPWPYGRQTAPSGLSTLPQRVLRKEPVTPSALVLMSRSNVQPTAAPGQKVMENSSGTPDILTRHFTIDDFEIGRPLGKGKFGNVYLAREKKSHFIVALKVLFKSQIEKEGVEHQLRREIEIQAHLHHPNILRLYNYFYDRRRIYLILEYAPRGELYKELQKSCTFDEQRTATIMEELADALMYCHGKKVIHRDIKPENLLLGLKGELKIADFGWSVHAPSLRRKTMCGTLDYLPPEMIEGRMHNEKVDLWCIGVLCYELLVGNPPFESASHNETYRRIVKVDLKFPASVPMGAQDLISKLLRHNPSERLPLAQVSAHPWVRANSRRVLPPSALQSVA

[11] = molecular target: CDK9/cyclin T1 (Homo sapiens) (UniProt O60563+P50750); assay: Residual activity of CDK9/Cyclin T at 0.1 uM by microplate scintillation counting; assay type: protein-complex assay
[12] = molecular target: T3, cAMP-dependent protein kinase catalytic subunit PRKX (Homo sapiens) (UniProt P51817); assay: Residual activity of PRKX at 0.1 uM by microplate scintillation counting
T3 sequence (whole entry): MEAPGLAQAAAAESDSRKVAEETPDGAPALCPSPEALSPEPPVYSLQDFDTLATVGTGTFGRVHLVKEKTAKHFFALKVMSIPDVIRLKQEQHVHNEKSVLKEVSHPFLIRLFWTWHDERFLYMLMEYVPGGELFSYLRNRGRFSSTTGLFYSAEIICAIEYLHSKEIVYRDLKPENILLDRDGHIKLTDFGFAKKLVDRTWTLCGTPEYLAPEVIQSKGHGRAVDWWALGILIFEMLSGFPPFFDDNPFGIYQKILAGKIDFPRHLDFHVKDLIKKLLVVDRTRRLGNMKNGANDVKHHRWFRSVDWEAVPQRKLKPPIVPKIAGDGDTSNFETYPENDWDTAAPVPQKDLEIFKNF

[13] = molecular target: Serine/threonine-protein kinase PAK 6 (Homo sapiens) (UniProt Q9NQU5); assay: Residual activity of PAK6 at 10 uM by microplate scintillation counting
Chain of Serine/threonine-protein kinase PAK 6 (Homo sapiens) (Q9NQU5 whole entry, looked up): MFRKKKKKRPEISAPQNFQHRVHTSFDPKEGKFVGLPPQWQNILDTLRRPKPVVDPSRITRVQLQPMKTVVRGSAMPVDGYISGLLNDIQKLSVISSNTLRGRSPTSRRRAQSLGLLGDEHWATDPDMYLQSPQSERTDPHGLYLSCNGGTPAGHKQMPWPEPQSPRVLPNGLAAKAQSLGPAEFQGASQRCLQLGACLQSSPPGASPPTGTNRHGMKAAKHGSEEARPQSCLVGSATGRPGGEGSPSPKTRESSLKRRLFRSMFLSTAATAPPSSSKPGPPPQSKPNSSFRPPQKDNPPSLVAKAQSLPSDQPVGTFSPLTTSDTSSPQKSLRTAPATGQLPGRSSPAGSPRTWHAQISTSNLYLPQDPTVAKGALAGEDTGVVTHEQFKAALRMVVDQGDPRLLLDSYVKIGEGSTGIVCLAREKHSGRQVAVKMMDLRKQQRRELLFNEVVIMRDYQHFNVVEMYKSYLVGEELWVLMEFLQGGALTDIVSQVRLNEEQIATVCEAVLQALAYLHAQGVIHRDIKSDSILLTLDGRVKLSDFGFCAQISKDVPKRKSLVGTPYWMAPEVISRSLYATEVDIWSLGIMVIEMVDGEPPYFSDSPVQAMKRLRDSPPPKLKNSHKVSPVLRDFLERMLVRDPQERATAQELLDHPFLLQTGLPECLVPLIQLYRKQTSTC

[14] = molecular target: Focal adhesion kinase 1 (Homo sapiens) (UniProt Q05397); assay: Residual activity of FAK at 1 uM by microplate scintillation counting

Chain of Serine/threonine-protein kinase PAK 5 (Homo sapiens) (Q9P286 whole entry, looked up): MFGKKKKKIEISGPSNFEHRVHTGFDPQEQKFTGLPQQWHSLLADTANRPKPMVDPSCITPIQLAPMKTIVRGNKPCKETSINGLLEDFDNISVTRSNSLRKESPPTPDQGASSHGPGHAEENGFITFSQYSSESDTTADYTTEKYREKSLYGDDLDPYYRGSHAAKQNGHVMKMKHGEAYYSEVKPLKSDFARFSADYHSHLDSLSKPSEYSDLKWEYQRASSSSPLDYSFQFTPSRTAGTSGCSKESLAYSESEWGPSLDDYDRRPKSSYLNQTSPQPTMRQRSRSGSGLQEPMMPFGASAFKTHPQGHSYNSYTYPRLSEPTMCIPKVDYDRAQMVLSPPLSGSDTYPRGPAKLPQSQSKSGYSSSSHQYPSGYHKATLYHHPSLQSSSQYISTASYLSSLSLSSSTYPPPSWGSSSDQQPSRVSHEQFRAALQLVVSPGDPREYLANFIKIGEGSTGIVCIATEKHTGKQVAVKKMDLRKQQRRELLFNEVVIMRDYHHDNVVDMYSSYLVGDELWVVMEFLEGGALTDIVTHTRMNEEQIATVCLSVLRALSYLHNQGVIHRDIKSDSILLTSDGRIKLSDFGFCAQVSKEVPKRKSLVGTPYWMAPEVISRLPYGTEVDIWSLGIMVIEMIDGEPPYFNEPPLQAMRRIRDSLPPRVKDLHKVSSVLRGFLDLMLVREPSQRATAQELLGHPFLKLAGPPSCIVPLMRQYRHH

Compound	residual activity [1] [%]	residual activity [2] [%]	residual activity [3] [%]	residual activity [4] [%]	residual activity [5] [%]	residual activity [6] [%]	residual activity [7] [%]	residual activity [8] [%]	residual activity [9] [%]	residual activity [10] [%]	residual activity (Aurora kinase B) [%]	residual activity [11] [%]	residual activity [12] [%]	residual activity [13] [%]	residual activity [14] [%]
COc1cc2c(Oc3ccc(-c4nc5ccccc5s4)cc3)ncnc2cc1OCCCN1CCN(C)CC1	45	80	82	70	86	67	80	-18	97	86	18	101	90	65	93
COc1cc2c(Oc3ccc(-c4nc5ccccc5s4)cc3F)ncnc2cc1OCCCN1CCN(C)CC1	49	50	64	74	72	58	58	77	84	86	20	91	93	57	104
COc1cc2c(Oc3ccc(-c4nc5ccccc5s4)cc3)ncnc2cc1OCCCN1CCCC1	84	61	100	51	98	56	33	73	90	72	24	94	86	95	98
